Experimental data published in US11964943B2, “3,5-diarylidenyl-n-substituted-piperid-4-one-derived inhibitors of Stat3 pathway activity and uses thereof” (priority 2017, dated 2024).
Converted amounts (≈) assume the structure as drawn. “Also recorded” adds a separate entry of the source. Read-outs that look alike come from different tables or passages of the source.

Key:
[1] = system: Stat3, Stat1α, Stat5a and Stat5b; experiment: Stat selectivity: immunoblotting and TransAM STAT Family ELISA; assay type: cell-based; conditions: DU145 cells, 18 h
Description: The Active Motif TransAMX Stat Family ELISA kit was utilized to study the specificity of IE-8 for Stat3, 20 μg of whole cell extract was used and Stat activity was assessed according to the manufacturer's protocol. Briefly, 30 μl of Complete Binding Buffer (provided and supplemented with 2 μl of 1M DTT and 10 μl of Herring sperm DNA per ml of Binding Buffer AM6) was added to each well used. 20 μl of sample (nuclear extract diluted in Complete Lysis Buffer) per well, were used, while Complete Lysis Buffer (provided and supplemented with 1 μl of 1 M DTT and 10 μl of Protease Inhibitor Cocktail per ml of Lysis Buffer AM1) only, was used for blanks. The plate was sealed with the provided adhesive cover and incubated for 1 hour at room temperature, with mild agitation, on a rocking platform. At the end of incubation, the wells were washed 3 times with 200 μl 1× Wash Buffer (provided). 100 μl of one of the diluted Stat antibodies (1:1000 dilution in 1× Antibody binding buffer for the Stat3, Stat1, Stat5A and Stat5B antibodies) were added to all the used wells. […] Absorbance was read on a spectrophotometer immediately thereafter, at 450 nm, with a reference wavelength of 655 nm.
TransAM® STAT Family ELIS Assay. […] 20 μg of whole cell extract was used and STAT activity was assessed according to the manufacturers protocol.

[2] = system: HCT116-oxaliplatin resistant cells; experiment: MTT growth inhibition and Chou-Talalay combination index with oxaliplatin; assay type: cell-based; design: key to Effect: affected fraction (Fa) from MTT absorbance, 0-1; conditions: for CI values in combination with oxaliplatin: fixed and non-fixed ratio combination treatments, in many instances
Description: The software Calcusyn was utilized for analysis of drug interactions using the Chou-Talalay combination index method (Chou, T.-C. Drug Combination Studies and Their Synergy Quantification Using the Chou-Talalay Method. [Cancer Res. 70, 440-446 (2010)]
The affected fractions were calculated from the SRB or MTT assay absorbance values and were registered to derive the respective CI values and isobolograms. A CI value of less than 1 (one) indicates synergy.
MIT assay. Individual drug treatments and combinations were carried out as with the SRB assay. The MTT assay was carried out as previously (see Cytotoxicity studies sections) with the difference that it was completed in 96 h.

[3] = system: HCT116-oxaliplatin resistant spheroids; experiment: CellTiter-Glo 3D cell viability assay, HCT116-oxaliplatin resistant spheroids; assay type: cell-based; conditions: 96 h exposure, 3D CellTiter-Glo
Description: For cell spheroid formation, HCT116-oxaliplatin resistant cells, A2780-cisplatin resistant cells, and HT1080 cells were seeded in Corning® Spheroid opaque-walled 96 well Microplates (ultra-low attachment; Nuclon™ Sphera™, Thermofisher) at densities of 2000 cells/well in 100 μl of cell solution and allowed to grow for 4 days, before any manipulation.
Spheroid cells were treated by adding 100 μl of 2-fold the desired compound concentration and incubated at 37° C. for 96 h. At the end of drug incubation, both the plates and the CellTitre-Glo® reagent (previously thawn overnight in the fridge) were equilibrated at room temperature for at least 30 min. Subsequently, 100 μl of cell solution were carefully removed from each well, without disrupting the spheroid and equal volume of CellTitre-Glo® reagent was added. Cell lysis was performed by vigorously shaking the plate for 5 min. To stabilize the luminescent signal, the plate was incubated in the dark at RT for another 30 min before luminescence was recorded on a plate reader. The cell viability of treated samples was normalised to the untreated controls.
The cytotoxicity studies in spheroids were conducted using the CellTiter-Glo® 3D Cell viability assay (Promega) following the instructions of the manufacturer.

DU145 cells [4] = experiment: Wound healing (scratch) assay; assay type: cell-based; conditions: 1 μM for 18 h prior to wounding; untreated control closed by 36 h
Description: DU145 cells were seeded in 6-well cell culture plates with Dulbecco's modified Eagle's medium/high glucose containing 10% FBS. After the cells reached 100% confluence, the monolayer was scratched using a […] pipette tip and washed once with PBS, to remove non-adherent cells. […] After drug incubation and wound induction, the medium was replaced with fresh drug-free medium and cells were observed under the microscope at the denoted time points.

B16 (melanoma) cells = experiment: MTT cytotoxicity assay, B16 cells
[5] = molecular target: Stat3 binding to hSIE DNA probe (Homo sapiens, UniProt P40763); experiment: Electrophoretic mobility shift assay (EMSA); conditions: DU145 nuclear extracts
Description: Binding reactions contained 0.9 μg poly(dI-dC). Competition assays were performed by adding 100× excess cold SIE oligonucleotide (lane C) and non-specific competitor (lane M: FIRE; 5′-[sequence]-3′). The DNA-protein complexes were subjected to electrophoresis and resolved on a 5% non-denaturing polyacrylamide gel (30% acrylamide/Bis solution, Bio-Rad) in 0.5% TBE buffer containing 2.5% glycerol (pH 7.8) at 4° C. for 2 h. Once dried, the radioactive signal of the gel was visualized by exposure to Fuji medical X-ray film.
Binding reactions contained 0.9 μg poly(dI-dC). Competition assays were performed by adding 100× excess cold SIE oligonucleotide (lane C) and non-specific competitor (lane M; FIRE; 5′-[sequence]-3′). The DNA-protein complexes were subjected to electrophoresis and resolved on a 5% non-denaturing polyacrylamide gel (30% acrylamide/Bis solution, Bio-Rad) in 0.5% TBE buffer containing 2.5% glycerol (pH 7.8) at 4° C. for 2 h. Once dried, the radioactive signal of the gel was visualized by exposure to Fuji medical X-ray film.

[6] = Aqueous solubility (MultiScreen Solubility Filter Plate, shake-flask based)
Description: Aqueous solubility of Compounds of the Invention was measured with a modified version of the MultiScreen Solubility Filter Plate protocol (Millipore). This assay was based on the shake-flask equilibrium method and utilizes UV-Vis spectroscopy to quantify the unknown samples. The assay was conducted at room temperature at pH 7.4. […] Compound of the Invention was dissolved in DMSO, and the final DMSO concentration was 5% (v/v). Each sample was analyzed by UV-Vis spectroscopy at 10 nm increments from 260-600 nm to determine the optimal wavelength for detection and construct standard curves. […] A 4:1 mixture of supernatant to acetonitrile was added to a 96-well acrylic plate and analyzed by UV-Vis spectroscopy.
Aqueous solubility was measured with a modified version of the MultiScreen Solubility Filter Plate protocol (Millipore). This assay is based on the shake-flask equilibrium method and utilizes UV-Vis spectroscopy to quantify the unknown samples. The assay is conducted at room temperature at pH 7.4. […] Each compound was dissolved in DMSO, and the final DMSO concentration was 5% (v/v). Each sample was analyzed by UV-Vis spectroscopy at 10 nm increments from 260-600 nm to determine the optimal wavelength for detection and construct standard curves. […] A 4:1 mixture of supernatant to acetonitrile was added to a 96-well acrylic plate and analyzed by UV-Vis spectroscopy.

DU145 cells [7] = experiment: Annexin V/PI apoptosis assay; assay type: cell-based; conditions: DU145, 24 h, increasing concentrations
Description: Cells were seeded in 24-well plates at densities of 10×10^4 cells/well (A2780-cisplatin resistant) and 1.6×10^4 cells/well (DU145) and allowed to grow at 37° C. overnight prior to treatment. […] At the end of the drug incubations, the supernatant along with the trypsinised cells were collected in falcon tubes and spun for 3 min at 300 g. Cell pellets were resuspended in PBS and transferred to fresh Eppendorf tubes. After a final round of centrifugation, cell pellets were gently resuspended in 150 μl of a Annexin V-FITC labelled solution in binding buffer (2 μl per 150 μl buffer; Binding buffer: 10 mM Hepes/NaOH, pH 7.4, 140 mM NaCl and 2.5 mM CaCl2) and incubated in the dark at 37° C. for 15 min. Cells were subsequently stained with 150 μl of a 200 mg/mL PI-solution and samples were immediately processed with the flow cytometer. […] The data were analysed and presented using the FlowJo software.
Annexin V/Propidium iodide Apoptosis/Cell death was assessed by flow cytometry using the FITC-conjugated annexin V protein (Affymetrix, eBioscience) and propidium iodide double staining. […] Cells were subsequently counterstained with the addition of PI (200 μg/ml) and analysed on a Millipore Guava easyCyte™ 8HT flow cytometer using the InCyte software. The derived data were analysed as dot plots and quantified using the FlowJo software (TreeStar).

[8] = IE-8 2.0 μM 1 h, then oxaliplatin 0.1 μM 96 h
[9] = IE-8 2.0 μM 1 h, then oxaliplatin 1.0 μM 96 h
[10] = IE-8 2.0 μM 1 h, then oxaliplatin 10.0 μM 96 h
[11] = IE-8 2.0 μM 1 h, then oxaliplatin 20.0 μM 96 h
[12] = IE-8 2.0 μM 1 h, then oxaliplatin 40.0 μM 96 h
[13] = IE-8 2.0 μM 1 h, then oxaliplatin 60.0 μM 96 h
[14] = IE-8 2.0 μM 1 h, then oxaliplatin 80.0 μM 96 h
[15] = IE-8 2.0 μM 1 h, then oxaliplatin 100.0 μM 96 h
[16] = IE-8 2.0 μM 1 h, then oxaliplatin 200.0 μM 96 h
[17] = IE-8 2.5 μM 1 h, then oxaliplatin 0.1 μM 96 h
[18] = IE-8 2.5 μM 1 h, then oxaliplatin 1.0 μM 96 h
[19] = IE-8 2.5 μM 1 h, then oxaliplatin 10.0 μM 96 h
[20] = IE-8 2.5 μM 1 h, then oxaliplatin 20.0 μM 96 h
[21] = IE-8 2.5 μM 1 h, then oxaliplatin 40.0 μM 96 h
[22] = IE-8 2.5 μM 1 h, then oxaliplatin 60.0 μM 96 h
[23] = IE-8 2.5 μM 1 h, then oxaliplatin 80.0 μM 96 h
[24] = IE-8 2.5 μM 1 h, then oxaliplatin 100.0 μM 96 h
[25] = IE-8 2.5 μM 1 h, then oxaliplatin 200.0 μM 96 h
[26] = IE-8 3.0 μM 1 h, then oxaliplatin 0.1 μM 96 h
[27] = IE-8 3.0 μM 1 h, then oxaliplatin 1.0 μM 96 h
[28] = IE-8 3.0 μM 1 h, then oxaliplatin 10.0 μM 96 h
[29] = IE-8 3.0 μM 1 h, then oxaliplatin 20.0 μM 96 h
[30] = IE-8 3.0 μM 1 h, then oxaliplatin 40.0 μM 96 h
[31] = IE-8 3.0 μM 1 h, then oxaliplatin 60.0 μM 96 h
[32] = IE-8 3.0 μM 1 h, then oxaliplatin 80.0 μM 96 h
[33] = IE-8 3.0 μM 1 h, then oxaliplatin 100.0 μM 96 h
[34] = IE-8 3.0 μM 1 h, then oxaliplatin 200.0 μM 96 h
[35] = oxaliplatin 1.0 μM 1 h, 3 h later IE-8 1.0 μM until 96 h
[36] = oxaliplatin 10.0 μM 1 h, 3 h later IE-8 1.0 μM until 96 h
[37] = oxaliplatin 20.0 μM 1 h, 3 h later IE-8 1.0 μM until 96 h
[38] = oxaliplatin 40.0 μM 1 h, 3 h later IE-8 1.0 μM until 96 h
[39] = oxaliplatin 60.0 μM 1 h, 3 h later IE-8 1.0 μM until 96 h
[40] = oxaliplatin 80.0 μM 1 h, 3 h later IE-8 1.0 μM until 96 h
[41] = oxaliplatin 200.0 μM 1 h, 3 h later IE-8 1.0 μM until 96 h
[42] = oxaliplatin 400.0 μM 1 h, 3 h later IE-8 1.0 μM until 96 h

Sequence of Stat3 binding to hSIE DNA probe (P40763 whole entry): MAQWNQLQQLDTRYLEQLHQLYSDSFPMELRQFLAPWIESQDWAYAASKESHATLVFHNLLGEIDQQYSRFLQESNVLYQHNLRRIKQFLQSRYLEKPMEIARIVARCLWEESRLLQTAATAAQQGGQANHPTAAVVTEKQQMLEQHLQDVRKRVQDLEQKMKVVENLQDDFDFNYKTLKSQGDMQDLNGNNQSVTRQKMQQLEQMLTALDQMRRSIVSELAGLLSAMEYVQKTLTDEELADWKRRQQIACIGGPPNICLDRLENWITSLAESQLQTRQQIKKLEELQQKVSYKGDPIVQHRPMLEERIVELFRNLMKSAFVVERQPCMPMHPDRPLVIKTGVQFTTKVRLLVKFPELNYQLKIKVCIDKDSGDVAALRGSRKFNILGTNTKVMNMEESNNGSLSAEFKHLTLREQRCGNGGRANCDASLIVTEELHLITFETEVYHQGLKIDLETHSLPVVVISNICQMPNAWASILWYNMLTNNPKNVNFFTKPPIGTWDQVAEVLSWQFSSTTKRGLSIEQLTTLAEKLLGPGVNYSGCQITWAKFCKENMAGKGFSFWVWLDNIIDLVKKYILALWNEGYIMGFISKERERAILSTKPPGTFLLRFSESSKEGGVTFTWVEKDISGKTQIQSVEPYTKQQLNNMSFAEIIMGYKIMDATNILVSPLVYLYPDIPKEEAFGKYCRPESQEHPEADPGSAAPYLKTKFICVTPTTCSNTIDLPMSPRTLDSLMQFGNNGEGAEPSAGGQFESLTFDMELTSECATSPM

3,5-Di(3,4,5-trimethoxybenzylidene)-1-phenylpiperidin-4-one [IE-8]
selectivity for Stat3 over Stat1, Stat5a and Stat5b [1]: selective for STAT3 over STAT1 | CI values in combination with oxaliplatin [2]: < 1 | IC50 [3]: 8.5 µM | time for which full wound closure was prevented (DU145 cells [4]): up to 60 h | IC50 (B16 (melanoma) cells; read-out: IC50 (μM) B16, 72 h exposure, MTT, mean of three independent experiments): ~0.3 µM | concentration blocking Stat3-DNA binding activity [5]: ≥ 0.8 µM | Solubility in aqueous buffer ([6]; pH 7.4, room temperature, 5% DMSO, free base): 200 ± 30 µM

COc1cc(/C=C2\CN(c3ccccc3)C/C(=C\c3cc(OC)c(OC)c(OC)c3)C2=O)cc(OC)c1OC [IE-8, 3,5-Di(3,4,5-trimethoxybenzylidene)-1-phenylpiperidin-4-one]
selectivity for Stat3 over Stat1, Stat5a and Stat5b [1]: selectively inhibits pStat3^Tyr705 without inhibiting pStat1^Tyr701 or pStat5^Tyr694; also recorded: selectively inhibit the Stat3-DNA binding activity over that of Stat1α, Stat5a and Stat5b; also recorded: selective for Stat3 over Stat1, Stat5a, and Stat5b | apoptotic cells (Annexin V/PI) (DU145 cells [7]): dose-dependent increase in apoptotic cells | CI-value [2, 8]: 1.558 | Effect [2, 8]: 0.1065 | CI-value [2, 9]: 1.979 | Effect [2, 9]: 0.0954 | CI-value [2, 10]: 2.754 | Effect [2, 10]: 0.1575 | CI-value [2, 11]: 1.58 | Effect [2, 11]: 0.315 | CI-value [2, 12]: 1.172 | Effect [2, 12]: 0.4676 | CI-value [2, 13]: 1.135 | Effect [2, 13]: 0.5256 | CI-value [2, 14]: 0.827 | Effect [2, 14]: 0.6386 | CI-value [2, 15]: 0.7749 | Effect [2, 15]: 0.678 | CI-value [2, 16]: 0.4016 | Effect [2, 16]: 0.8582 | CI-value [2, 17]: 0.721 | Effect [2, 17]: 0.5165 | CI-value [2, 18]: 1.405 | Effect [2, 18]: 0.2143 | CI-value [2, 19]: 1.985 | Effect [2, 19]: 0.231 | CI-value [2, 20]: 1.805 | Effect [2, 20]: 0.313 | CI-value [2, 21]: 0.8326 | Effect [2, 21]: 0.6087 | CI-value [2, 22]: 0.8009 | Effect [2, 22]: 0.6559 | CI-value [2, 23]: 0.5921 | Effect [2, 23]: 0.76 | CI-value [2, 24]: 0.7993 | Effect [2, 24]: 0.7021 | CI-value [2, 25]: 0.4777 | Effect [2, 25]: 0.855 | CI-value [2, 26]: 0.8489 | Effect [2, 26]: 0.527 | CI-value [2, 27]: 1.924 | Effect [2, 27]: 0.171 | CI-value [2, 28]: 1.573 | Effect [2, 28]: 0.3259 | CI-value [2, 29]: 1.453 | Effect [2, 29]: 0.4064 | CI-value [2, 30]: 0.7871 | Effect [2, 30]: 0.6743 | CI-value [2, 31]: 0.8214 | Effect [2, 31]: 0.6878 | CI-value [2, 32]: 0.5584 | Effect [2, 32]: 0.8108 | CI-value [2, 33]: 0.48 | Effect [2, 33]: 0.8527 | CI-value [2, 34]: 0.4763 | Effect [2, 34]: 0.877 | CI values in combination with oxaliplatin [2]: < 1 | CI-value [2, 35]: 5.476 | Effect [2, 35]: 0.2692 | CI-value [2, 36]: 1.482 | Effect [2, 36]: 0.6799 | CI-value [2, 37]: 0.9954 | Effect [2, 37]: 0.7838 | CI-value [2, 38]: 0.5439 | Effect [2, 38]: 0.8908 | CI-value [2, 39]: 0.5183 | Effect [2, 39]: 0.897 | CI-value [2, 40]: 0.4279 | Effect [2, 40]: 0.9184 | CI-value [2, 41]: 0.3786 | Effect [2, 41]: 0.93 | CI-value [2, 42]: 0.488 | Effect [2, 42]: 0.9045 | IC50 [3]: 8.5 µM | time for which full wound closure was prevented (DU145 cells [4]): up to 60 h | IC50 (B16 (melanoma) cells; Mus musculus, B16, 72 h, read-out: IC50 (μM) B16, 72 h exposure, MTT, mean of three independent experiments): 0.3 µM | concentration blocking Stat3-DNA binding activity [5]: ≥ 0.8 µM | solubility at 6 h ([6]; aqueous buffer with 5% DMSO, pH 7.4, aqueous with cosolvent or surfactant or cyclodextrin, kinetic from dmso stock): 200 ± 30 µM (≈ 106 µg/mL)
